Results published in patent US20260356841A1, “HETEROCYCLIC PYRIDINONE COMPOUNDS AS TRIGGERING RECEPTOR EXPRESSED ON MYELOID CELLS 2 AGONISTS AND METHODS OF USE” (Vigil Neuroscience, Inc., priority 2023, published 2026).

Biological target: T1, human TREM2 (Homo sapiens, UniProt Q9NZC2)
T1 construct: expressed in transfected cells; host or cells: HEK293T (HEK293T-hTREM2 cells)
Test: TREM2 agonist potency by cellular phosphorylation of Spleen Tyrosine Kinase (Syk), AlphaLisa, HEK293T-hTREM2 cells
Format: cell-based
Conditions: not given
Experimental: Measurement of TREM2 agonist potency was done using a HEK cell line expressing human TREM2 and DAP12 (HEK293T-hTREM2 cells). Binding of small molecules to, and activation of, TREM2 increases the phosphorylation of Syk. The resultant levels of Syk phosphorylation are measured using a commercial AlphaLisa reagent kit. To perform the assay, HEK-hTREM2 cells were plated at 14,000 cells per well in a 384 well plate, in 25 μL of complete growth media and incubated at 37° C., 5% CO2 for 20-24 hours.
Prior to the assay, test compounds were diluted in the 384 well plates in assay buffer and allowed to equilibrate for 30 minutes. Growth media was removed from cell plates by inversion on blotting paper, and 25 μL of test articles in assay buffer was added to cells. Cells were incubated for 45 minutes at room temperature. After 45 minutes, assay buffer was removed and 10 μL of lysis buffer was added. Plates were shaken for 20 minutes at 350 RPM at room temperature. After complete lysis, AlphaLisa reagents were added to the lysate, and fluorescence intensity was measured using a Perkin Elmer Envision plate reader. Intensities were used to generate a standard curve, and % activation was calculated. Curve fitting was performed using Prism v9 software, log (agonist) vs response-variable slope (four parameters), and EC50s were calculated from the curve fit.
The results presented in Table B have been generated with the in vitro assay described above. This assay may be used to test any of the compounds described herein to assess and characterize a compound's ability to act as an agonist of TREM2.

T1 sequence (Q9NZC2 19-230): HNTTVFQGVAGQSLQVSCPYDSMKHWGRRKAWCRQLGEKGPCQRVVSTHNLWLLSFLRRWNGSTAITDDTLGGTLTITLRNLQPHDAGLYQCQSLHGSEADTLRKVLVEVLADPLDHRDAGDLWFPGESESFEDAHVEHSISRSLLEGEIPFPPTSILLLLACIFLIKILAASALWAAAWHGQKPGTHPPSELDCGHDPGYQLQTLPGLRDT
T1 sequence (O43914 22-113 partner): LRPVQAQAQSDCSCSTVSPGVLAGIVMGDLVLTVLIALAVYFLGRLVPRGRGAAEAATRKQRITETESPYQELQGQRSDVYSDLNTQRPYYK

SMILES | EC50 [nM]
Cc1nc2nc(N3C[C@@H](C)O[C@@H](c4ccc(=O)n(C)c4)C3)nc(-c3ccc(C(F)(F)F)cc3F)c2nc1C [Example 7, 5-[(2S,6R)-4-[4-[2-fluoro-4-(trifluoromethyl)phenyl]-6,7-dimethyl-pteridin-2-yl]-6-methyl-morpholin-2-yl]-1-methyl-pyridin-2-one] | < 100

Same assay, conditions: hTREM2 EC50 Data (HEK293 Cells); Syk phosphorylation, AlphaLisa; read-out: hTREM2 EC50

SMILES | EC50 [nM]
Cc1nc2nc(C3CCO[C@@H](c4ccc(=O)n(-c5cscn5)c4)C3)nc(C34CC(C(F)(F)F)(C3)C4)c2nc1C (mixture of isomers) [Example 109, 5-((2R)-4-(6,7-dimethyl-4-(3-(trifluoromethyl)bicyclo-[1.1.1]pentan-1-yl)pteridin-2-yl)tetrahydro-2H-pyran-2-yl)-1-(thiazol-4-yl)pyridin-2(1H)-one] | < 100
Cc1nc2nc([C@@H]3CCO[C@@H](c4ccc(=O)n(C)c4)C3)nc(-c3ccc(Cl)cc3F)c2nc1C (racemic) [Example 9, 1-methyl-5-[rac-(2R,4R)-4-[4-(4-chloro-2-fluoro-phenyl)-6,7-dimethyl-pteridin-2-yl]tetrahydropyran-2-yl]pyridin-2-one] | < 100
Cc1nc2c(C34CC(C(F)(F)F)(C3)C4)nc([C@H]3CCO[C@@H](c4ccc(=O)[nH]c4)C3)nc2c(=O)n1C (racemic) [Example 216, 2,3-dimethyl-6-[rac-(2R,4S)-2-(6-oxo-1H-pyridin-3-yl)tetrahydropyran-4-yl]-8-[3-(trifluoromethyl)-1-bicyclo[1.1.1]pentanyl]pyrimido[5,4-d]pyrimidin-4-one] | 100 to 500
Cc1nc2c(C34CC(C(F)(F)F)(C3)C4)nc([C@H]3CCO[C@@H](c4ccc(=O)n(C)c4)C3)nc2c(=O)n1C (racemic) [Example 217, 2,3-dimethyl-6-[rac-(2R,4S)-2-(1-methyl-6-oxo-3-pyridyl)tetrahydropyran-4-yl]-8-[3-(trifluoromethyl)-1-bicyclo[1.1.1]pentanyl]pyrimido[5,4-d]pyrimidin-4-one] | < 100
Cc1nc2c(C34CC(C(F)(F)F)(C3)C4)nc([C@H]3CCO[C@@H](c4ccc(=O)n(N)c4)C3)nc2c(=O)n1C (racemic) [Example 218, 2,3-dimethyl-6-[rac-(2R,4S)-2-(1-amino-6-oxo-3-pyridyl)tetrahydropyran-4-yl]-8-[3-(trifluoromethyl)-1-bicyclo[1.1.1]pentanyl]pyrimido[5,4-d]pyrimidin-4-one] | 100 to 500
Cc1nc2nc([C@H]3CCO[C@@H](c4ccc(=O)n(C)c4)C3)nc(C34CC(Cl)(C3)C4)c2nc1C (single isomer, unassigned) [Example 40] | < 100
CN1Cc2c(cc([C@H]3CCO[C@@H](c4ccc(=O)n(C)c4)C3)nc2-c2ccc(C(F)(F)F)cc2F)C1=O (single isomer, unassigned) [Example 165] | 100 to 500
CN(C)c1nc2nc([C@H]3CCO[C@H](c4ccc(=O)n(C)c4)C3)nc(-c3ccc(F)cc3F)c2s1 (stereo in doubt) [Example 11, 5-[(2S,4S)-4-[7-(2,4-difluorophenyl)-2-(dimethylamino)thiazolo[4,5-d]pyrimidin-5-yl]tetrahydropyran-2-yl]-1-methyl-pyridin-2-one] | 100 to 500
Cc1nc2nc(C3CCO[C@@H](c4ccc(=O)n(N(C)C)c4)C3)nc(C34CC(C(F)(F)F)(C3)C4)c2nc1C(F)F (stereo in doubt) [Example 220, 5-((2R,4R)-4-(6-(difluoromethyl)-7-methyl-4-(3-(trifluoromethyl)bicyclo[1.1.1]pentan-1-yl)pteridin-2-yl)tetrahydro-2H-pyran-2-yl)-1-(dimethylamino)pyridin-2(1H)-one] | < 100
Cc1nc2nc([C@H]3CCO[C@@H](c4ccc(=O)n(C)c4)C3)nc(-c3ccc(F)cc3F)c2nc1C [Example 1, 1-methyl-5-[(2R,4S)-4-[4-(2,4-difluorophenyl)-6,7-dimethyl-pteridin-2-yl]tetrahydropyran-2-yl]pyridin-2-one] | < 100
Cc1nc2nc([C@@H]3CCO[C@H](c4ccc(=O)n(C)c4)C3)nc(-c3ccc(F)cc3F)c2nc1C [Example 2, 5-[(2S,4R)-4-[4-(2,4-difluorophenyl)-6,7-dimethyl-pteridin-2-yl]tetrahydropyran-2-yl]-1-methyl-pyridin-2-one] | > 500
Cc1nc2nc([C@H]3CCO[C@@H](c4ccc(=O)n(C)c4)C3)nc(-c3ccc(C(F)(F)F)cc3F)c2nc1C [Example 4, 1-methyl-5-[(2R,4S)-4-[4-[2-fluoro-4-(trifluoro-methyl)phenyl]-6,7-dimethyl-pteridin-2-yl]tetrahydropyran-2-yl]pyridin-2-one] | < 100
Cc1nc2nc([C@@H]3CCO[C@H](c4ccc(=O)n(C)c4)C3)nc(-c3ccc(C(F)(F)F)cc3F)c2nc1C [Example 5, 1-methyl-5-[(2S,4R)-4-[4-[2-fluoro-4-(trifluoromethyl)phenyl]-6,7-dimethyl-pteridin-2-yl]tetrahydropyran-2-yl]pyridin-2-one] | < 100
CN(C)c1nc2nc([C@H]3CCO[C@@H](c4ccc(=O)n(C)c4)C3)nc(-c3ccc(F)cc3F)c2s1 [Example 13, 5-[(2R,4S)-4-[7-(2,4-difluorophenyl)-2-(dimethylamino)thiazolo[4,5-d]pyrimidin-5-yl]tetrahydropyran-2-yl]-1-methyl-pyridin-2-one] | 100 to 500
CN(C)c1nc2nc([C@@H]3CCO[C@H](c4ccc(=O)n(C)c4)C3)nc(-c3ccc(F)cc3F)c2s1 [Example 14, 5-[(2S,4R)-4-[7-(2,4-difluorophenyl)-2-(dimethylamino)thiazolo[4,5-d]pyrimidin-5-yl]tetrahydropyran-2-yl]-1-methyl-pyridin-2-one] | < 100
CN(C)c1nc2nc(C3CCOC(c4ccc(=O)n(C)c4)C3)nc(-c3ccc(F)cc3F)c2s1 (stereo not drawn) [Example 15] | < 100
Cc1nc2nc(N3C[C@@H](C)O[C@@H](c4ccc(=O)n(C)c4)C3)nc(-c3ccc(F)cc3F)c2nc1C [Example 16, 5-[(2S,6R)-4-[4-(2,4-difluorophenyl)-6,7-dimethyl-pteridin-2-yl]-6-methyl-morpholin-2-yl]-1-methyl-pyridin-2-one] | < 100
Cc1nc2nc([C@H]3CCO[C@@H](c4ccc(=O)n(C)c4)C3)nc(-c3ccc(C(F)(F)F)c(F)c3F)c2nc1C [Example 18, 5-[(2R,4S)-4-[4-[2,3-difluoro-4-(trifluoromethyl)-phenyl]-6,7-dimethyl-pteridin-2-yl]tetrahydropyran-2-yl]-1-methyl-pyridin-2-one] | 100 to 500
Cc1nc2nc([C@@H]3CCO[C@H](c4ccc(=O)n(C)c4)C3)nc(-c3ccc(C(F)(F)F)c(F)c3F)c2nc1C [Example 19] | < 100
Cc1nc2nc(N3C[C@@H](C)O[C@@H](c4ccc(=O)n(C)c4)C3)nc(-c3cnc(C4CC4)s3)c2nc1C [Example 21, 5-[(2S,6R)-4-[4-(2-cyclopropylthiazol-5-yl)-6,7-dimethyl-pteridin-2-yl]-6-methyl-morpholin-2-yl]-1-methyl-pyridin-2-one] | < 100
Cc1nc2nc(N3C[C@@H](C)O[C@@H](c4ccc(=O)n(C)c4)C3)nc(-c3cnc(C(F)(F)F)s3)c2nc1C [Example 23, 5-[(2S,6R)-4-[6,7-dimethyl-4-[2-(trifluoromethyl)thiazol-5-yl]pteridin-2-yl]-6-methyl-morpholin-2-yl]-1-methyl-pyridin-2-one] | < 100
Cc1nc2nc([C@H]3CCO[C@@H](c4ccc(=O)n(C)c4)C3)nc(C34CC(C(F)(F)F)(C3)C4)c2nc1C [Example 25, 5-((2R,4S)-4-(6,7-dimethyl-4-(3-(trifluoromethyl)bicyclo[1.1.1]pentan-1-yl)pteridin-2-yl)tetrahydro-2H-pyran-2-yl)-1-methylpyridin-2(1H)-one] | < 100
Cc1nc2nc([C@@H]3CCO[C@H](c4ccc(=O)n(C)c4)C3)nc(C34CC(C(F)(F)F)(C3)C4)c2nc1C [Example 26, 5-[(2S,4R)-4-[6,7-dimethyl-4-[3-(trifluoromethyl)-1-bicyclo[1.1.1]-pentanyl]pteridin-2-yl]tetrahydropyran-2-yl]-1-methyl-pyridin-2-one] | < 100
Cc1nc2nc(C3CCOC(c4ccc(=O)n(C)c4)C3)nc(C34CC(C(F)(F)F)(C3)C4)c2nc1C (stereo not drawn) [Example 27, 5-(4-(6,7-dimethyl-4-(3-(trifluoromethyl)-bicyclo[1.1.1]pentan-1-yl)pteridin-2-yl)tetrahydro-2H-pyran-2-yl)-1-methylpyridin-2(1H)-one] | < 100
Cc1nc2nc([C@H]3CCO[C@@H](c4ccc(=O)n(C)c4)C3)nc(C3CCC(F)(F)CC3)c2nc1C [Example 28, 5-((2R,4S)-4-(4-(4,4-difluorocyclohexyl)-6,7-dimethylpteridin-2-yl)tetrahydro-2H-pyran-2-yl)-1-methylpyridin-2 (1H)-one] | < 100
Cc1nc2nc([C@@H]3CCO[C@H](c4ccc(=O)n(C)c4)C3)nc(C3CCC(F)(F)CC3)c2nc1C [Example 29, 5-((2S,4R)-4-(4-(4,4-difluorocyclohexyl)-6,7-dimethylpteridin-2-yl)tetrahydro-2H-pyran-2-yl)-1-methylpyridin-2 (1H)-one] | 100 to 500
